pIC50: −log10 of the molar value.
System: 439559-082-T-J2-PDC spheroids viability
Assay: Anticancer human tumor 439559-082-T-J2-PDC patient-derived colon adenocarcinoma cell line growth inhibition [GQUAD]
Settings: for pIC50: curve of first compound; for viability, T/C: stronger effect = lower value; active means viability on the fitted dose curve at most 10% of control; inactive means the rest
Procedure, shortened: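 Tumor cells were grown as complex spheroids with HUVEC endothelial cells and mesenchymal stem cells as stroma. G-quadruplex stabilizers were combined with targeted agents over half-log dilutions from near the clinical Cmax, or from 10 microM.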

[1] = second compound 0.0316 µM, first compound 0.0316 µM
[2] = second compound 0.0316 µM, first compound 0.316 µM
[3] = second compound 0.1 µM, first compound 0.0316 µM
[4] = second compound 0.1 µM, first compound 0.316 µM
[5] = second compound 0.316 µM, first compound 0.0316 µM
[6] = second compound 0.316 µM, first compound 0.316 µM
[7] = second compound 1 µM, first compound 0.0316 µM
[8] = second compound 1 µM, first compound 0.316 µM
[9] = second compound 3.16 µM, first compound 0.0316 µM
[10] = second compound 3.16 µM, first compound 0.316 µM
[11] = second compound 10 µM, first compound 0.0316 µM
[12] = second compound 10 µM, first compound 0.316 µM
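Further: spheroids exposed to the agents for 7 days before readout.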
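Wherever viability, T/C is given: percent of luminescence signal in DMSO vehicle wells taken as 100% viability.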

Cn1ncnc1[C@H]1c2n[nH]c(=O)c3cc(F)cc(c23)N[C@@H]1c1ccc(F)cc1 + Cc1[nH]c2ccc(F)cc2c1-c1nc2c3cccnc3c3ncccc3c2[nH]1
< 6.50: pIC50 (second compound 0.0316 µM) | pIC50 (second compound 0.1 µM) | pIC50 (second compound 0.316 µM) | pIC50 (second compound 1 µM) | pIC50 (second compound 3.16 µM) | pIC50 (second compound 10 µM)
inactive: viability, T/C (second compound 0.0316 µM, first compound 0.000999 µM) 105% | viability, T/C (second compound 0.0316 µM, first compound 0.00316 µM) 93.7% | viability, T/C (second compound 0.0316 µM, first compound 0.00999 µM) 97.2% | viability, T/C [1] 89.4% | viability, T/C (second compound 0.0316 µM, first compound 0.0999 µM) 90.4% | viability, T/C [2] 92.1% | viability, T/C (second compound 0.1 µM, first compound 0.000999 µM) 103% | viability, T/C (second compound 0.1 µM, first compound 0.00316 µM) 105% | viability, T/C (second compound 0.1 µM, first compound 0.00999 µM) 93.6% | viability, T/C [3] 93.5% | viability, T/C (second compound 0.1 µM, first compound 0.0999 µM) 90% | viability, T/C [4] 88.9% | viability, T/C (second compound 0.316 µM, first compound 0.000999 µM) 113% | viability, T/C (second compound 0.316 µM, first compound 0.00316 µM) 99% | viability, T/C (second compound 0.316 µM, first compound 0.00999 µM) 99.6% | viability, T/C [5] 93.4% | viability, T/C (second compound 0.316 µM, first compound 0.0999 µM) 97.2% | viability, T/C [6] 85.8% | viability, T/C (second compound 1 µM, first compound 0.000999 µM) 87.3% | viability, T/C (second compound 1 µM, first compound 0.00316 µM) 98.5% | viability, T/C (second compound 1 µM, first compound 0.00999 µM) 92% | viability, T/C [7] 94.1% | viability, T/C (second compound 1 µM, first compound 0.0999 µM) 99.2% | viability, T/C [8] 84% | viability, T/C (second compound 3.16 µM, first compound 0.000999 µM) 79.6% | viability, T/C (second compound 3.16 µM, first compound 0.00316 µM) 87.5% | viability, T/C (second compound 3.16 µM, first compound 0.00999 µM) 77.3% | viability, T/C [9] 85.7% | viability, T/C (second compound 3.16 µM, first compound 0.0999 µM) 81.8% | viability, T/C [10] 76.2% | viability, T/C (second compound 10 µM, first compound 0.000999 µM) 85.7% | viability, T/C (second compound 10 µM, first compound 0.00316 µM) 86.7% | viability, T/C (second compound 10 µM, first compound 0.00999 µM) 72.3% | viability, T/C [11] 85.8% | viability, T/C (second compound 10 µM, first compound 0.0999 µM) 82% | viability, T/C [12] 61.8%

O=C(c1cc(Cc2n[nH]c(=O)c3ccccc23)ccc1F)N1CCN(C(=O)C2CC2)CC1 + Cc1[nH]c2ccc(F)cc2c1-c1nc2c3cccnc3c3ncccc3c2[nH]1
inactive: viability, T/C [1] 100% | viability, T/C (second compound 0.0316 µM, first compound 0.1 µM) 110% | viability, T/C [2] 91.5% | viability, T/C (second compound 0.0316 µM, first compound 1 µM) 96.8% | viability, T/C (second compound 0.0316 µM, first compound 3.16 µM) 102% | viability, T/C (second compound 0.0316 µM, first compound 10 µM) 96.3% | viability, T/C [3] 103% | viability, T/C (second compound 0.1 µM, first compound 0.1 µM) 104% | viability, T/C [4] 94.9% | viability, T/C (second compound 0.1 µM, first compound 1 µM) 90.5% | viability, T/C (second compound 0.1 µM, first compound 3.16 µM) 103% | viability, T/C (second compound 0.1 µM, first compound 10 µM) 100% | viability, T/C [5] 103% | viability, T/C (second compound 0.316 µM, first compound 0.1 µM) 99.3% | viability, T/C [6] 105% | viability, T/C (second compound 0.316 µM, first compound 1 µM) 102% | viability, T/C (second compound 0.316 µM, first compound 3.16 µM) 107% | viability, T/C (second compound 0.316 µM, first compound 10 µM) 89.9% | viability, T/C [7] 105% | viability, T/C (second compound 1 µM, first compound 0.1 µM) 102% | viability, T/C [8] 98.3% | viability, T/C (second compound 1 µM, first compound 1 µM) 99.3% | viability, T/C (second compound 1 µM, first compound 3.16 µM) 105% | viability, T/C (second compound 1 µM, first compound 10 µM) 89% | viability, T/C [9] 90.8% | viability, T/C (second compound 3.16 µM, first compound 0.1 µM) 79% | viability, T/C [10] 92.7% | viability, T/C (second compound 3.16 µM, first compound 1 µM) 89.9% | viability, T/C (second compound 3.16 µM, first compound 3.16 µM) 98.8% | viability, T/C (second compound 3.16 µM, first compound 10 µM) 87.3% | viability, T/C [11] 88.2% | viability, T/C (second compound 10 µM, first compound 0.1 µM) 87.1% | viability, T/C [12] 86.2% | viability, T/C (second compound 10 µM, first compound 1 µM) 76% | viability, T/C (second compound 10 µM, first compound 3.16 µM) 90.5% | viability, T/C (second compound 10 µM, first compound 10 µM) 89.5%
< 5.00: pIC50 (second compound 0.0316 µM) | pIC50 (second compound 0.1 µM) | pIC50 (second compound 0.316 µM) | pIC50 (second compound 1 µM) | pIC50 (second compound 3.16 µM) | pIC50 (second compound 10 µM)

From PubChem BioAssay AID2060510 (Molecular Pharmacology Branch, DTP, NCI, 2025)
